Read-outs that look alike come from different tables or passages of the source.
Legend:
hH2R-Gsαs fusion protein = biological target: T1, hH2R-Gsαs fusion protein (Homo sapiens, UniProt P25021); assay: Radioligand competition binding with [3H]UR-DE257 on Sf9 membranes; conditions: read-out: pKi (RL comp. binding Sf9 membranes) (converted)
T1 construct: made in house; host or cells: Sf9 insect cells (recombinant baculovirus), membrane preparation
Procedure: All data analysis was performed using Prism 5.0c (GraphPad, San Diego, CA, USA).

[1] = Chemical stability in binding buffer (HPLC); type: physicochemical; conditions: binding buffer pH 7.4, rt, 96 h incubation
Procedure: The chemical stability of the fluorescent H2R ligands UR-KAT478 (8), UR-KAT515 (9) and UR-KAT514 (10) was investigated at physiological pH (7.4) in binding buffer (12.5 mM MgCl2, 1 mM EDTA and 75 mM Tris/HCl, pH 7.4)^1 and in case of UR-KAT514 (10) as well in a mixture of DMSO/binding buffer 1:1. Incubation was started by addition of 27.5 μL of a 2.5 mM solution of the respective compounds in DMSO/Millipore H2O 1:1, which were freshly prepared from a 5 mM stock solution in DMSO, to 522.5 μL of binding buffer or DMSO/binding buffer 1:1 yielding a final concentration of […]. The samples were shaken for up to 4 days at 700 rpm. After indicated time periods, a 70 μL aliquot was taken and diluted with 70 µL of a mixture of MeCN, Millipore H2O and 10% aqueous TFA (60:90:1). Prior to HPLC analysis, the samples were stored at -20 °C. 50 μL of the resulting solution were analyzed by HPLC as described in the experimental section. The absorption was detected at 220 nm. The blank HPLC run was performed under identical conditions without any ligand.

hH2R [2] = biological target: T2, hH2R (Homo sapiens, UniProt P25021); assay: Flow cytometric saturation binding assay with HEK293T-hH2R-qs5-HA cells; set-up: expressed in transfected cells; host or cells: HEK293T-hH2R-qs5-HA cells; conditions: saturation binding at HEK293T-hH2R-qs5-HA cells; mean ± SEM; read-out: pKd (Flow cytometry) (converted)
Procedure: All flow cytometric measurements were performed with FACSCanto™II flow cytometer (Becton Dickinson, Heidelberg, Germany), equipped with an argon laser (488 nm) and a red diode laser (633 nm) (settings: FCS: A, log, 0 V; SSC: A, log, 252 V; ACP: A,H,W, log, 350 V or PerCP-Cy5-5: A,H, log 485 V or PE: A,H,W, log, 420 V) according to general protocols with minor modifications.^4,5 All measurements were performed in duplicate and recorded either in channel PerCP-Cy5 (Py-1, excitation: 488 nm), APC (BODIPY 630/650, excitation: 633 nm) or PE (TAMRA, excitation: 488 nm). Data acquisition was stopped after 10,000 gated events.
Cell culture and preparation of HEK293T-hH2R-qs5-HA cells was performed as described.^4 Briefly, cells were maintained in 25 or 175 cm^2 flasks (Sarstedt, Nümbrecht, Germany) in a humidified atmosphere (95% air, 5% CO2) at 37 °C using Dulbecco`s Modified Eagle`s Medium supplemented with 2 mM L-glutamine (Sigma-Aldrich, Munich, Germany), 10% FCS, 400 µg/mL geneticin (G418), and 100 µg/mL hygromycin B (AG Scientific, San Diego, CA, USA). On the day of the experiment, cells were detached with trypsin/EDTA (0.05%/0.2%) and centrifuged (500 x g, 5 min). The cell pellet was resuspended in Leibovitz’ L-15 medium containing 1% FCS and the cell density was adjusted to 1 x 10^6 cells/mL. The serial dilutions of the tested fluorescent ligands and famotidine (competitor, for non-specific binding) were prepared in DMSO/H2O (1:1, v/v). All incubation steps were performed in 96-well Primaria^TM plates (CORNING, NY, USA). 200 µL of the adjusted cell suspension were either added to 2 µL of DMSO/H2O (1:1, v/v, total binding) or to 2 µl of famotidine (300-fold excess over the fluorescent ligand, non-specific binding). Incubation was started by addition of 2 µL of the respective fluorescent ligand in different concentrations (100-fold concentrated with respect to the final concentration). […] Samples were transferred to 5 mL polystyrol FACS tubes (Sarstedt, Nümbrecht, Germany) and measured immediately. […]

hH2R [3] = biological target: T2, hH2R; assay: β-Arrestin2 recruitment assay (split-luciferase complementation), HEK293T-ARRB2-H2R cells; type: cell-based; set-up: expressed in transfected cells; host or cells: HEK293T-ARRB2-H2R cell line; conditions: read-out: pKb (β-arrestin2 recruitment) (converted)
NLuc-hH2R = biological target: T3, NLuc-hH2R (Homo sapiens, UniProt P25021); assay: NanoBRET saturation binding assay
T3 construct: membrane signal peptide of the murine 5HT3A receptor (N); expressed in transfected cells
Procedure: KG, Wertheim, Germany). The cells were then incubated at 37 °C in a humidified atmosphere (no additional CO2) overnight. […] After 60 min incubation time at 27 °C, 10 μL of the substrate furimazine, which was diluted according to manufacturer's protocol beforehand, were added. After 5 min of equilibration time at 27 °C, the measurement was started. […] After addition of the diluted substrate, the plate was placed inside the reader for 5 min to equilibrate. […] Dissociation experiments were conducted in wells, which have been preincubated with 8 as described above for association experiments. […] All measurements were performed on a TECAN InfiniteLumi plate reader (TECAN, Grödig, Austria) at 27 °C using the Blue2 NB (460 nm ± 35 nm, bandpass) and the Red NB (> 610 nm, longpass) filter combination with an integration time of 100 ms. For the kinetic experiments, integration time was increased to 500 ms for both channels to reduce noise. BRET ratios were calculated by dividing the acceptor emission (red NB) by the donor luminescence (Blue2 NB). For all BRET binding experiments, specific binding was calculated by subtracting non-specific binding from total binding yielding the “corrected BRET ratio”. For saturation binding experiments, total and non-specific binding were fitted simultaneously using the “one-site total and nonspecific binding” fit. Specific binding was fitted accordingly applying the “one-site specific binding” fit. […] The normalized competition binding curves were then fitted with a four-parameter logistic fit yielding pIC50-values. These were transformed into pKi-values using the Cheng-Prusoff equation[38].

T2 sequence (P25021 whole entry): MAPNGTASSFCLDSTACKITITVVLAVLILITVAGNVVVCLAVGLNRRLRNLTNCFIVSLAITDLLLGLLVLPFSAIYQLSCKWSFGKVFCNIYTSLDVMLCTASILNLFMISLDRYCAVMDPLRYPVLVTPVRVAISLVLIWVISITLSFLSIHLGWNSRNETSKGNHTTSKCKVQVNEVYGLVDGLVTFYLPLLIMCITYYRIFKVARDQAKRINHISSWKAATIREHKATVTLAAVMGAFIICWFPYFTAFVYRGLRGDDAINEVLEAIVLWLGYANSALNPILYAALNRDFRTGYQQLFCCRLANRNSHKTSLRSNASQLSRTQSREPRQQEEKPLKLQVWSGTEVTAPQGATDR
T3 sequence (P25021 whole entry): as above
T1 sequence (P25021+P63092 fused): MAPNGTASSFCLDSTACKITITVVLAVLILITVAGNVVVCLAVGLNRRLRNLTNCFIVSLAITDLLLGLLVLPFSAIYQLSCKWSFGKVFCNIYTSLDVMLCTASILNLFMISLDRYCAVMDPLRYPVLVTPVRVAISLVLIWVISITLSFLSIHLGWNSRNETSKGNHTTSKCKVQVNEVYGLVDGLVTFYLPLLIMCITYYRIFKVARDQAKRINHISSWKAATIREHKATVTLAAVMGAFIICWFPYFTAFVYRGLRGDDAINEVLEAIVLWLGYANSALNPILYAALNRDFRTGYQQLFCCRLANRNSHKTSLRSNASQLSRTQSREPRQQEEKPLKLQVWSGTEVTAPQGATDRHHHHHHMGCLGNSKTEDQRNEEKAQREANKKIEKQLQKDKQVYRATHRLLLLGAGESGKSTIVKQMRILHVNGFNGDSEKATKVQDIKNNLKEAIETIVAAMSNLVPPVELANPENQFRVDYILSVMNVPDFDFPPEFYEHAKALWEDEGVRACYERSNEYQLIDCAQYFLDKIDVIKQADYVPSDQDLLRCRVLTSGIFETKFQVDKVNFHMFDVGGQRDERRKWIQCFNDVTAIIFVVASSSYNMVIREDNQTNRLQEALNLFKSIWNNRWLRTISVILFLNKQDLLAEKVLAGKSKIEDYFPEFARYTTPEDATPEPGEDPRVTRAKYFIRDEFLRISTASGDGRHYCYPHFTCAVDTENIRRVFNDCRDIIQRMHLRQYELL

Ki (hH2R-Gsαs fusion protein): 24 nM
Chemical stability (decomposition) [1]: no decomposition
Kd (hH2R [2]): 74.1 nM
Kb (hH2R [3]): 16.6 nM
Kd (NLuc-hH2R; representative NanoBRET saturation isotherm, result from single experiment, HEK293T NLuc-hH2R, read-out: Kd* (single experiment)): 29.4 nM
Kd (NLuc-hH2R; saturation binding, live HEK293T cells stably expressing NLuc-hH2R, mean ± SEM, read-out: pKd (NanoBRET) (converted)): 44.7 nM
SMILES: Cc1cc(/C=C/c2cc3c4c(c2)CCCN4CCC3)cc(C)[n+]1CCCCNc1c(NCCCOc2cccc(CN3CCCCC3)c2)c(=O)c1=O [Compound 8, (E)-1-(4-((3,4-Dioxo-2-((3-(3-(piperidin-1-ylmethyl)phenoxy)propyl)amino)cyclobut-1-en-1-yl)amino)butyl)-2,6-dimethyl-4-(2-(2,3,6,7-tetrahydro-1H,5H-pyrido[3,2,1-ij]quinolin-9-yl)vinyl)pyridin-1-ium]
